The assay concerns the target T1, NIK (Homo sapiens, UniProt Q99558).
T1 construct: Both assays utilize a truncated form of NIK containing only the catalytic domain; made in house; host or cells: baculovirus expression system (insect cells implied)
As to the kind of experiment: homogenous time resolved fluorescence (HTRF) assay for NIK Ki measurement. It is filed as biochemical. Conditions: truncated NIK (catalytic domain only), autophosphorylation; 10 nM enzyme; 20, 100, 200 or 500 μM ATP; room temperature, 2 hours; read-out: Ki activity in the homogenous time resolved fluorescence (HTRF) assay for NIK. Background: Time-resolved FRET reads energy transfer from a long-lived donor to a nearby acceptor.
T1 sequence (Q99558 400-655 limits assumed): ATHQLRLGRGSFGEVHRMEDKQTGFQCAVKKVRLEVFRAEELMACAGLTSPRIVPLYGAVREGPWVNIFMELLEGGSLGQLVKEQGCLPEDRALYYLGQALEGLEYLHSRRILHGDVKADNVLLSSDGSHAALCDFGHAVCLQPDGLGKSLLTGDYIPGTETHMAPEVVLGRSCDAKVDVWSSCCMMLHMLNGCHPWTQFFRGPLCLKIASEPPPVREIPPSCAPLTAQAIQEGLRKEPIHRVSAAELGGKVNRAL
The Ki is the equilibrium dissociation constant of an inhibitor or competing ligand from its target. For the compound `CC(O)(C#Cc1ccc2c(c1)N(c1nc(N)ncc1Cl)CC2)c1cc(F)ccn1` (stereo not shown) [Example 11, 4-(1-(2-amino-5-chloropyrimidin-4-yl)indolin-6-yl)-2-(4-fluoropyridin-2-yl)but-3-yn-2-ol], the Ki was in the range of 1 to 30 µM.
For `Nc1ncc(Cl)c(-c2cn(CC(=O)N3CCOCC3)c3ccc(C#CC4(O)CCCC4)cc23)n1` [Example 128, 2-(3-(2-amino-5-chloropyrimidin-4-yl)-5-(2-(1-hydroxycyclopentyl)ethynyl)-1H-indol-1-yl)-1-morpholinoethanone] the value was < 1 µM; for `CN1CC[C@]2(C1)CN(c1nc(N)ncc1Cl)c1cc(C#C[C@@](C)(O)c3nccs3)ccc12` (relative stereo) [Example 197, (2R)-4-((3S*)-1-(2-Amino-5-chloro-4-pyrimidinyl)-1′-methyl-1,2-dihydrospiro[indole-3,3′-pyrrolidin]-6-yl)-2-(1,3-thiazol-2-yl)-3-butyn-2-ol], < 1 µM.
For `COCCOc1cnc(N)nc1-c1c[nH]c2ccc(C#CC3(O)CCCC3)cc12` [Example 223, 1-((3-(2-Amino-5-(2-methoxyethoxy)-4-pyrimidinyl)-1H-indol-5-yl)ethynyl)cyclopentanol] the value was < 1 µM; for `Cc1cc([C@](C)(O)C#Cc2ccc3c(c2)N(c2nc(N)ncc2Cl)CC32CCOCC2)no1` (single isomer, unassigned) [Example 211], < 1 µM; for `CC(O)(C#Cc1cccc(Nc2ccncn2)n1)c1nccs1` (stereo not shown) [Example 173, 4-(6-(pyrimidin-4-ylamino)pyridin-2-yl)-2-(thiazol-2-yl)but-3-yn-2-ol], < 1 µM.
Next, `CC(O)(C#Cc1ccc2c(c1)N(c1nc(N)ncc1Cl)CC2(C)C)c1ncco1` (stereo not shown) [Example 305, 4-(1-(2-Amino-5-chloro-4-pyrimidinyl)-3,3-dimethyl-2,3-dihydro-1H-indol-6-yl)-2-(1,3-oxazol-2-yl)-3-Butyn-2-ol]: < 1 µM; `Nc1ncc(Cl)c(-c2cn(C[C@@H]3CCCO3)c3ccc(C#CC4(O)CCCC4)cc23)n1` [Example 136, 1-(2-(3-(2-amino-5-chloropyrimidin-4-yl)-1-(((S)-tetrahydrofuran-2-yl)methyl)-1H-indol-5-yl)ethynyl)cyclopentanol]: < 1 µM; `Cc1cc([C@](C)(O)C#Cc2ccc(F)c(Nc3nc(N)ncc3Cl)c2)no1` [Example 176, (R)-4-(3-(2-Amino-5-chloropyrimidin-4-ylamino)-4-fluorophenyl)-2-(5-methylisoxazol-3-yl)but-3-yn-2-ol]: < 1 µM.
For the compound `CC(C)(C#Cc1ccc2c(c1)N(c1nc(N)ncc1Cl)CC2(C)CO)C(=O)OCc1ccccc1` (single isomer, unassigned) [Example 57, benzyl 4-((3S*)-1-(2-amino-5-chloro-4-pyrimidinyl)-3-(hydroxymethyl)-3-methyl-2,3-dihydro-1H-indol-6-yl)-2,2-dimethyl-3-butynoate], the Ki was < 1 µM.
Next, `Cc1cnc(C(C)(O)C#Cc2ccc3c(c2)N(c2nc(N)ncc2Cl)CC32CN(C)C2)s1` (stereo not shown) [Example 301, 4-(1′-(2-Amino-5-chloro-4-pyrimidinyl)-1-methyl-1′,2′-dihydrospiro[azetidine-3,3′-indol]-6′-yl)-2-(5-methyl-1,3-thiazol-2-yl)-3-butyn-2-ol]: < 1 µM; `COc1ccc(C#CC2(O)CCCC2)cc1Nc1nc(N)ncc1Cl` [Example 145, 1-((3-((2-amino-5-chloro-4-pyrimidinyl)amino)-4-(methyloxy)-phenyl)ethynyl)-cyclopentanol]: < 1 µM; `Cc1nc(C(C)(O)C#Cc2ccc3c(c2)N(c2ccnc(N)n2)CC3)sc1C` (stereo not shown) [Example 285, 4-(1-(2-Amino-4-pyrimidinyl)-2,3-dihydro-1H-indol-6-yl)-2-(4,5-dimethyl-1,3-thiazol-2-yl)-3-Butyn-2-ol]: 1 to 30 µM.
For `C[C@@](O)(C#Cc1ccc2c(c1)N(c1ccnc(N)n1)CC2)c1nccs1` [Example 294, (2R)-4-(1-(2-amino-4-pyrimidinyl)-2,3-dihydro-1H-indol-6-yl)-2-(1,3-thiazol-2-yl)-3-Butyn-2-ol] the value was < 1 µM; for `CC(O)(C#Cc1ccc2ncc(-c3nc(N)ncc3Cl)n2c1)c1ncco1` (stereo not shown) [Example 309, 4-(3-(2-Amino-5-chloro-4-pyrimidinyl)imidazo[1,2-a]pyridin-6-yl)-2-(1,3-oxazol-2-yl)-3-Butyn-2-ol], < 1 µM.
Take `Nc1ncc(Cl)c(-c2cn(C3CCNC3)c3ccc(C#CC4(O)CCCC4)cc23)n1` (stereo not shown) [Example 114, 1-(2-(3-(2-amino-5-chloropyrimidin-4-yl)-1-(pyrrolidin-3-yl)-1H-indol-5-yl)ethynyl)cyclopentanol]: the inhibition constant (Ki) was < 1 µM.
For `Nc1nccc(-n2ccc3c(O)cc(C#CC4(O)CCCC4)cc32)n1` [Example 99, 1-(2-aminopyrimidin-4-yl)-6-(2-(1-hydroxycyclopentyl)ethynyl)-1H-indol-4-ol] the value was < 1 µM.
Next, `COCCOCCOc1cnc(N)nc1-c1c[nH]c2ccc(C#CC3(O)CCCC3)cc12` [Example 228, 1-((3-(2-Amino-5-(2-(2-methoxyethoxy)ethoxy)-4-pyrimidinyl)-1H-indol-5-yl)ethynyl)cyclopentanol]: < 1 µM.
Next, `CC(O)(C#Cc1ccc2c(c1)N(c1nc(N)ncc1Cl)CC2)c1cnccn1` (stereo not shown) [Example 4, 4-(1-(2-amino-5-chloropyrimidin-4-yl)indolin-6-yl)-2-(pyrazin-2-yl)but-3-yn-2-ol]: < 1 µM.
As to `COCCC1(C)CN(c2nc(N)ncc2Cl)c2cc(C#CC3(O)CCCC3)ccc21` (stereo not shown) [Example 64, 1-((1-(2-amino-5-chloro-4-pyrimidinyl)-3-(2-methoxyethyl)-3-methyl-2,3-dihydro-1H-indol-6-yl)ethynyl)cyclopentanol], the Ki was < 1 µM.
For `Cc1cc(C(C)(O)C#Cc2ccc(F)c(Nc3nc(N)ncc3Cl)c2)no1` (stereo not shown) [Example 167, 4-(3-(2-Amino-5-chloropyrimidin-4-ylamino)-4-fluorophenyl)-2-(5-methylisoxazol-3-yl)but-3-yn-2-ol] the value was < 1 µM.
For `Cc1csc(C(C)(O)C#Cc2ccc3c(c2)N(c2ccnc(N)n2)CC3)n1` (stereo not shown) [Example 287, 4-(1-(2-Amino-4-pyrimidinyl)-2,3-dihydro-1H-indol-6-yl)-2-(4-methyl-1,3-thiazol-2-yl)-3-Butyn-2-ol] the value was 1 to 30 µM.
Next, `Nc1ncc(OCc2cccnc2)c(-c2c[nH]c3ccc(C#CC4(O)CCCC4)cc23)n1` [Example 232, 1-((3-(2-Amino-5-(3-pyridinylmethoxy)-4-pyrimidinyl)-1H-indol-5-yl)ethynyl)cyclopentanol]: < 1 µM; `CC(O)(C#Cc1ccc2c(c1)N(c1nc(N)ncc1Cl)CC2)c1ccn[nH]1` (stereo not shown) [Example 78, 4-(1-(2-Amino-5-chloro-4-pyrimidinyl)-2,3-dihydro-1H-indol-6-yl)-2-(1H-pyrazol-5-yl)-3-butyn-2-ol]: < 1 µM; `CC(O)(C#Cc1ccc2c(c1)N(c1ccnc(N)n1)CC2)c1ccco1` (stereo not shown) [Example 269, 4-(1-(2-Amino-4-pyrimidinyl)-2,3-dihydro-1H-indol-6-yl)-2-(2-furanyl)-3-butyn-2-ol]: < 1 µM.

The record behind these values is US20110086834A1, “ALKYNYL ALCOHOLS AS KINASE INHIBITORS” (AMGEN INC., priority 2008, published 2011).
